Experimental findings from US20260097083A1, “METHOD FOR PRODUCING PANCREATIC ENDODERM CELLS” (Kyoto University, priority 2022, published 2026) are described below.

Test [1] has as its system pancreatic endoderm cells derived from ES cells (KhES-3 line). Kind of test: Expansion culture of pancreatic endoderm cells derived from ES cells. It is filed as cell-based, human. As for the experimental part: PDX1^+/NKX6.1^+ pancreatic endoderm cells were produced from iPS cells (585A1 line) or ES cells (KhES-3 line) on a 6-well plate using the method by Toyoda et al. (Toyoda T, et al. Stem Cell Reports 2017). Briefly, the undifferentiated cells above were seeded at 1×10^6/well on a 6-well plate coated with iMatrix-511 silk. The cells were cultured in RPMI to which an S1 culture medium (1×B-27 Supplement, 100 U/ml penicillin/streptomycin, 100 ng/ml activin A, and CHIR99021 (Day 1: 3 μM, Days 2 and 3: 1 μM, and Day 4: 0 μM)) had been added for 4 days, in an S2 culture medium (improved MEM to which 0.5×B-27 Supplement, 100 U/ml penicillin/streptomycin, and 50 ng/ml KGF/FGF7 had been added) for 5 days, and in an S3 culture medium (improved MEM to which 0.5×B-27 Supplement, 100 U/ml penicillin/streptomycin, 50 ng/ml KGF/FGF7, 0.2 μM LDN-193189, 0.1 μM SANT-1, and 10 nM TTNPB had been added) for 2 days. The cells were detached from the 6-well plate using trypsin, and were reseeded on a 6-well plate coated with iMatrix-511 silk at 1.5×10^6/well using the S3 culture medium again. […] (5) The cells were suspended in improved MEM (containing 10 μM Y-27632, 0.5×B-27 Supplement, and 100 U/ml penicillin/streptomycin), and were counted. […]

For test [2], the system named is pancreatic endoderm cells. Kind of test: α-SMA immunostaining at the third passage of expansion culture. The format is cell-based. Particulars: Y-27632 50 μM vs non-administration, FIG. 6. As for the experimental part:
FIG. 6 Images of pancreatic endoderm cells immunostained against α-SMA at the third passage of the pancreatic endoderm cells with or without the administration of Y-27632 (50 μM). The cells after the expansion culture were washed with PBS(−) twice, and were then fixed using 4% PFA at 4° C. for 20 minutes. The cells were blocked with a blocking solution (PBS(−) containing 5% donkey serum and 0.4% Triton X-100) at room temperature for 30 minutes. The cells were incubated in a primary antibody solution diluted with the blocking solution at 4° C. overnight. After the primary antibody solution was washed off, the cells were incubated at room temperature for 1 hour in a fluorescent secondary antibody solution diluted with the blocking solution. Fluorescently immunostained images were acquired using BZ-710 or BZ-800 (Keyence). A mechanism by which the expansion culture of pancreatic endoderm cells with Y-27632 was enabled was examined. It was shown that, at the third passage of the expansion culture, the number of α-SMA-positive cells increased in the Y-27632 non-administration group compared with the group to which Y-27632 at a concentration of 50 μM was administered (FIG. 6). That is to say, it was observed that fibrosis or epithelial-mesenchymal transition was suppressed by administering Y-27632 to the cells.

Test [3] deals with pancreatic endoderm cells after expansion culture. Kind of test: Induction of differentiation into β-like cells after expansion culture. It is filed as cell-based. As for the experimental part: After the expansion culture, the differentiation into β-like cells was induced using the method by Kimura et al. (Non Patent Literature 1) with a portion thereof being modified. Briefly, pancreatic endoderm cells were detached from a 6-well plate using trypsin, and were then suspended in the S4 culture medium at 3×10^5 cells/ml. The cells were seeded on a V-bottomed 96-well plate at 3×10^4 cells/100 μl/well. […] The induction of differentiation of pancreatic endoderm cells that had been repeatedly passaged 5 times using the expansion culture method with “Y-27632+DMSO” or “Y-27632+ALK5i+RA” into β-like cells was promoted. Then, the efficiency of induction into β-like cells was compared with that of a cell cluster obtained by inducing pancreatic endoderm cells that had not been passaged into B-like cells.

On to `C[C@@H](N)[C@H]1CC[C@H](C(=O)Nc2ccncc2)CC1` [Y-27632], for which the “expansion culture of the pancreatic endoderm cells” value in test [1] (FIG. 4-H) is listed as “similarly possible”. Also, the “cell (nuclear) shape” value in test [1] (Y-27632 10 μM, passaged 5 times (5 weeks), FIGS. 5-B and 5-C) is recorded as “changed their shape (elongated elliptical shape)”. Further, in test [2], the “fibrosis or epithelial-mesenchymal transition (α-SMA-positive cells)” value is “suppressed”. Besides, the “potential to differentiate into β-like cells” value in test [3] (after 2 rounds of expansion culture with Y-27632 50 μM, FIG. 4-G) was “had a potential to differentiate”. Moreover, the “efficiency of induction to β-like cells on repeated expansion culture” value in test [3] (culture medium for expansion culture with Y-27632) is recorded as “tended to gradually decrease”.
